From article PMC8145564, “Phenolic Compounds from Carissa spinarum Are Characterized by Their Antioxidant, Anti-Inflammatory and Hepatoprotective Activities” (Antioxidants, 2021)
Entries after “also recorded” stand apart in the source; their conditions may differ. Marks after values point to notes of the source that are not given here.

Assays:
[1] = DPPH radical scavenging activity assay; type: biochemical; settings: for Antioxidant potential in DPPH and FRAP (result in words): both methods (DPPH and FRAP); for IC50: isolated compounds, final concentrations 6.25 to 100 µM
Procedure: The 2,2-diphenyl-1-picrylhydrazyl (DPPH) radical scavenging abilities of the C. spinarum extracts and isolated compounds were assessed by the previously reported method. The reaction mixtures containing 190 µL DPPH solution (100 µM) and 10 µL samples (extracts or compounds) or positive control (vitamin C) solutions with various concentrations or blank control (methanol) were placed in the 96-well plate, and incubated in darkness at room temperature for 30 min. Then, the absorbance of the reaction mixture was measured by the microplate reader at 517 nm. All groups were tested in triplicate and the DPPH radical scavenging activity was calculated by the following equation:DPPH-radical scavenging percentage (%) = [(Acontrol − Asample)/Acontrol] × 100%(1)
Acontrol and Asample represent the absorbance of the blank control and samples or positive control, respectively. Additionally, the IC50 values, which were defined as the effective sample concentration when DPPH radical was scavenged by 50%, were calculated by the GraphPad Prism software.

[2] = Ferric reducing antioxidant power (FRAP) assay; type: biochemical; settings: for FRAP total antioxidant activity (result in words): isolated compounds, 6.25 to 100 µM, positive control vitamin C
Procedure: The FRAP assay was performed according to the methodology reported in [26, 27] with minor modifications. Briefly, the FRAP working solution, composed of 300 mM acetate buffer (pH 3.6), 10 mM TPTZ solution and 20 mM FeCl3·6H2O solution in a ratio of 10:1:1 (v/v/v), was freshly prepared and warmed at 37 °C before use. Then, 190 µL FRAP working solution and 10 µL samples were added in 96-well plates and incubated at 37 °C for 10 min. The absorbance of the reaction mixture was collected by a microplate reader at 593 nm. A standard curve was established by FeSO4 at final concentrations ranging from 1.56 to 200 µM, and the total antioxidant activities of the extracts, compounds and positive controls (vitamin C) were calculated by the standard curve and expressed in terms of the FeSO4 value (µM). All the results were shown by the average values of the three biological replications.

rhCOX-2 = target: T1, rhCOX-2 (Homo sapiens, UniProt P35354); assay: COX-2 inhibition assay (COX-2 inhibitor screening kit, fluorescence probe method)
T1 sequence (P35354 18-604): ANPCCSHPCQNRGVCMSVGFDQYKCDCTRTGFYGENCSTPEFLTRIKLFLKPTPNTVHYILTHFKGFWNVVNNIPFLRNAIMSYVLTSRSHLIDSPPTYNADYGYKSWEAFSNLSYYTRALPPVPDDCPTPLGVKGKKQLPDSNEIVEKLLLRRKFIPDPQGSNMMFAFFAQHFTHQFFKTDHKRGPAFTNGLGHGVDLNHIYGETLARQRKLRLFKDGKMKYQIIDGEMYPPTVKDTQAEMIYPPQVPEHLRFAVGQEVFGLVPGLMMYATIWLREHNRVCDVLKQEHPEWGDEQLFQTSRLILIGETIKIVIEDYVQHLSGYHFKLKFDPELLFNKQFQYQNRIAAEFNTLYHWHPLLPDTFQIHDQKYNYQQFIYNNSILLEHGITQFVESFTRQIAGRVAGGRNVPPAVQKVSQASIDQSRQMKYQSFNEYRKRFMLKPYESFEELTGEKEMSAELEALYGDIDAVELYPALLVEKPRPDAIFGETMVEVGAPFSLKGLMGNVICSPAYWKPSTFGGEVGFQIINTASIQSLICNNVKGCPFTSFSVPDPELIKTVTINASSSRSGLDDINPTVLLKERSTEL
Procedure: COX-2 inhibition activity was screened using a commercial assay kit by the fluorescence probe method, following the manufacturer’s instructions, based on a two-step reaction: the substrate (arachidonic acid) was firstly catalyzed by COX-2 to generate PGG2, which was then further catalyzed by COX-2 to produce PGH2. During the second step, the probe without fluorescence added in the reaction system was simultaneously catalyzed to probe with strong fluorescence. […] After incubation for 10 min at 37 °C, 5 µL COX-2 substrate and 5 µL COX-2 probe were added and incubated in darkness for 10 min. Then, the fluorescence intensity was recorded by microplate reader with the excitation wavelength at 560 nm and the emission wavelength at 590 nm. The COX-2 activity inhibition percentage was calculated by the following equation: COX-2 activity inhibition (%) = [(F100% activity control − Fsample)/(F100% activity control − Fblank control)] × 100%(2) where F100% activity control, Fsample and Fblank control represent the fluorescence intensity of the 100% enzyme activity control, samples or positive control, and blank control, respectively.

L02 cells [3] = assay: Quantitation of intracellular ROS (DCFH-DA) in H2O2-induced L02 cells; type: cell-based; settings: 5 µM final concentration, DCFH-DA fluorescence
Procedure: The quantitation of intracellular ROS was detected by the ROS assay kit purchased from Beyotime (Shanghai, China) following the manufacturer’s instructions. The cell pretreatment was the same as hepatoprotective activity screening. Four hours later, after the addition of H2O2, the cells were incubated with 10 µM DCFH-DA (final concentration in RPMI-1640 medium) for 30 min, and were then washed three times with medium. Finally, the fluorescence intensity was recorded by a microplate reader with the excitation wavelength at 488 nm and the emission wavelength at 525 nm and then the fluorescence photos were taken by a cell imaging multi-mode reader (Cytation 1, BioTek, Winooski, VT, USA). Each group was performed in triplicate and the fluorescence values were calibrated by the corresponding cell viabilities using the SRB method.

L02 cells [4] = assay: Hepatoprotective activity on L02 cells against H2O2-induced oxidative stress (SRB cell viability); type: cell-based; settings: then 300 µM H2O2 for 4 h, % of normal control, H2O2 model group 68.2% (65.2% for vitamin C); for viability at 5 µM: Homo sapiens, L02, 12 h pretreatment
Procedure: The L02 cells were purchased from BeNa Culture Collection Company (BNCC, Beijing, China) and cultured in RPMI-1640 medium supplemented with 10% fetal bovine serum (FBS) and 1% penicillin–streptomycin solution at 37 °C under 5% CO2 in a humidified incubator. The H2O2 induced oxidative stress model of L02 cell was established according to the reported method with slight modifications. Firstly, 120 µL L02 cell suspension (1 × 10^4 cells) was seeded in a 96-well plate and incubated for 24 h, followed by the addition of 15 µL PBS buffer (corresponding to the addition of tested samples). […] The cell viability was evaluated by the SRB test kit (BestBio, Shanghai, China) following the manufacturer’s instructions. According to the above result, after the 24 h incubation, the L02 cells were pretreated with 15 µL samples of various concentrations or PBS (H2O2-induced model and normal control group) for 12 h. Then, 15 µL H2O2 solution (300 µM) or PBS (normal control group) was added and maintained for 4 h. Finally, the cell viability was tested by the SRB method and expressed as a percentage of the normal control group. Each group was performed in triplicate.

CC(=O)c1ccccc1O[C@@H]1OC(CO[C@@H]2OC[C@@H](O)[C@H](O)[C@H]2O)[C@@H](O)[C@H](O)[C@H]1O (stereo partly drawn) [Compound 5, acetophenone-2-O-β-xylopyranosyl-(1→6)-O-β-glucopyranoside]
Antioxidant potential in DPPH and FRAP (result in words) [1]: no obvious antioxidant potential

O=C(O)Cc1cccc(C(=O)O)c1 [Compound 8, 3-carboxymethyl-benzoic acid]
FRAP total antioxidant activity (result in words) [2]: did not show any activities | Antioxidant potential in DPPH and FRAP (result in words) [1]: no obvious antioxidant potential | DPPH scavenging rate at the highest tested concentration ([1]; highest tested concentration (100 µM)): lower than 10% | COX-2 inhibition activity (result in words) (rhCOX-2; all tested concentrations, 0.04 to 25 µM): no COX-2 ability in all tested concentrations; also recorded: did not show any activities

COc1cc([C@H]2c3cc(O)c(OC)cc3C[C@@H](CO)[C@@H]2CO[C@@H]2O[C@H](CO)[C@@H](O)[C@H](O)[C@H]2O)ccc1O [Compound 2, (+)-isolariciresinol 3a-O-β-D-glucopyranoside]
ROS quantity versus H2O2-induced model group (L02 cells [3]): statistically significant decreases in ROS quantity | FRAP total antioxidant activity (result in words) [2]: higher reducing capacities than the positive control | viability at 5 µM (L02 cells [4]): 79.4% | IC50 (rhCOX-2): 0.3 µM

O=C1O[C@H]([C@@H](O)CO)C(O)=C1O [Vitamin C, vitamin C, reference compound]
FRAP ([2]; extracts of C. spinarum root bark, means ± SD (n = 3)): 8.9 ± 1.2 ^b mmol Fe^2+/g | DPPH IC50 ([1]; extracts of C. spinarum root bark, 30 min, 517 nm, means ± SD (n = 3)): 4.5 ± 0.1 ^d µg/mL | IC50 ([1]; means ± SD (n = 3)): 25.5 ± 0.3 µM | Viability of L02 cells (L02 cells [4]; 5 µM, 12 h pretreatment): 82.7%

O=C(O)c1ccc(O)c(O)c1 [Compound 9, protocatechuic acid]
ROS quantity versus H2O2-induced model group (L02 cells [3]): statistically significant decreases in ROS quantity | FRAP total antioxidant activity (result in words) [2]: higher reducing capacities than the positive control | IC50 ([1]; means ± SD (n = 3)): 16.5 ± 1.2 µM | viability at 5 µM (L02 cells [4]): 80.9%

COc1cc([C@@H](O)[C@@H](C)O)ccc1O [Compound 6, erythro-1-(3-methoxy-4-hydroxy-phenyl)-propan-1,2-diol]
FRAP total antioxidant activity (result in words) [2]: higher reducing capacities than the positive control

COc1cc([C@@H](O)[C@H](C)O)ccc1O [Compound 7, threo-1-(3-methoxy-4-hydroxy-phenyl)-propan-1,2-diol]
FRAP total antioxidant activity (result in words) [2]: higher reducing capacities than the positive control
